Source: US20220251095A1, “TRICYCLIC COMPOUND, PREPARATION METHOD THEREFOR AND USE THEREOF” (SHANGHAI JEMINCARE PHARMACEUTICALS CO., LTD., priority 2019, published 2022)

What was measured:
[1] = tested on: human plasma; assay: Anticoagulant effect on human blood in vitro (APTT clotting time, CT2.0); details: final concentration of compound corresponding to aPTT of the 2-fold blank control
Experimental: Activated partial thromboplastin time (APTT) measurement reagent was mixed with plasma and the reaction was carried out continuously resulting in a change in optical density up to the clotting point, and the clotting time (CT) was measured by optical turbidimetry using a semi-automatic coagulation analyzer. The in vitro anticoagulant activity of compounds on human blood was determined by detecting the clotting time of plasma treated with different concentrations of compounds, and the corresponding concentration of compounds prolonging clotting time was calculated.
Human plasma used in the experiment was purchased from HD Biosciences (Shanghai) Co., Ltd.; Activated partial thromboplastin time determination kit was purchased from Taizhou Zhongqin Shidi Biotechnology Co., Ltd., Item No. SS00220005.
(§1) The compounds were dissolved in 100% DMSO, 20 mM, and stored at room temperature in a nitrogen cabinet.
a. The NaCl reagent in the kit was incubated half an hour in advance, and the APTT reagent was balanced to room temperature.
b. The compound was continuously diluted at 14 concentration points using a Bravo liquid workstation with a 2-fold gradient.
c. 0.75 μL of the compound was added to the measuring cup, double-replicate wells; 50 μL of plasma was added and 50 μL of APTT reagent was added, the mixture was mixed well and put into coagulation analyzer for incubation at 37° C. for 3 minutes.
d. APTT assay was started, 50 μL of NaCl was added to start the reaction, and the clotting time was counted.
e. Control clotting time was measured using 100% DMSO instead of the compound, and the final concentration of DMSO was 0.5%.
Data were curve-fitted using Graphpad Prism to calculate CT2.0, the final concentration of compound corresponding to aPTT of the 2-fold blank control was calculated.

[2] = biological target: T1, coagulation factor XIa protease (FXIa) (Homo sapiens, UniProt P03951); assay: Inhibition of coagulation factor XIa (FXIa), chromogenic substrate, absorbance at 405; assay type: biochemical; details: FXIa 0.05 μg/mL, substrate 2.5 mM, 37° C. 15 minutes
T1 construct: purchased Abcam ab62411
T1 sequence (P03951 388-625 limits assumed): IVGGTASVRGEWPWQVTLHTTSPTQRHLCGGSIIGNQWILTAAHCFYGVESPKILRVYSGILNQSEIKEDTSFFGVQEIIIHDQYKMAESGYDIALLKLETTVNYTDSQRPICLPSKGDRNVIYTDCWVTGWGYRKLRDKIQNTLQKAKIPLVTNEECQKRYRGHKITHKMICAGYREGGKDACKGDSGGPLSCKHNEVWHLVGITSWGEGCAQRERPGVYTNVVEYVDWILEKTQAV
T1 sequence (P03951 19-387 partner limits assumed): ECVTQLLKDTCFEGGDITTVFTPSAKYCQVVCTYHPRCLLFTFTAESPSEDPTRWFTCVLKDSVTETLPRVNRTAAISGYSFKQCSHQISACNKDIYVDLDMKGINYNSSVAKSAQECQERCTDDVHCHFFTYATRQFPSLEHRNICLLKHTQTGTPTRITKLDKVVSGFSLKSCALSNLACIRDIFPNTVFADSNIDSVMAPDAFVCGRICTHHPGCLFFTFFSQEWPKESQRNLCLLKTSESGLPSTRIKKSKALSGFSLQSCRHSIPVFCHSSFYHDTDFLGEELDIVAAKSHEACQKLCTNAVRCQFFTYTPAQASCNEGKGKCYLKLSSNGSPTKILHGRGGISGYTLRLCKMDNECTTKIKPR
Experimental: Coagulation factor XIa protease (FXIa) decomposed the specific substrate to produce yellow p-nitroaniline (pNA), pNA had strong absorption at 405 nm. The inhibitory activity of the compounds on coagulation factor XIa was determined by assaying the absorbance of the compounds at […].
The coagulation factor XIa protease used in the experiment was purchased from Abcam Company, Item No. ab62411; the coagulation factor XIa-specific substrate was purchased from HYPHEN BioMed, Item No. Biophen cs-21 (66); tris-HCl was purchased from Invitrogen, Item No. 15567-027; NaCl was purchased from ABCONE, Item No. S39168; Twain 20 was purchased from Amersco, Item No. 0777-1L.
as §1
a. 20 mM of the tested compound was diluted to 2 mM using 100% DMSO, and the reference compound was diluted to 0.4 mM; the compound was continuously diluted with a 3-fold gradient at 10 concentration points using a Bravo liquid workstation.
b. The ECHO liquid workstation was used to transfer 10 nL of compound to the corresponding 384-well experimental plate with double replicate wells; the final concentrations of compound reactions were 1000, 333.3, 111.1, 37.0, 12.3, 4.1, 1.37, 0.46, 0.15, and 0.05 nM. The final concentrations of reference compounds were 200, 66.7, 22.2, 7.4, 2.47, 0.82, 0.27, 0.09, 0.03, 0.01 nM.
c. 10 nL DMSO and 10 nL 0.4 mM reference compounds were transferred to high signal control pores and low signal control pores respectively.
d. 0.1 μg/mL FXIa enzyme solution was prepared with buffer solution, and 10 μL enzyme solution was added to 384-well experimental plate, 5 mM substrate solution was prepared using buffer solution, and […] substrate solution was added to a 384-well experimental plate. The final concentration of FXIa was 0.05 μg/mL and the final concentration of the substrate was 2.5 mM.
e. The 384-hole experimental plate was centrifuged and incubated at 37° C. for 15 minutes.
f. The absorbance was measured at 405 nm using EnVision.

[3] = Pharmacokinetic experiment in rats, intravenous injection and oral administration; assay type: in vivo; details: male Sprague Dawley rats; for F: intragastric administration 2 mg/kg vs intravenous 1 mg/kg; for AUC(0-inf) / Cmax / half-life / clearance / Vd: rat, plasma; for Vd: read-out: Vz
Experimental: In this experimental embodiment, in vivo pharmacokinetic evaluation was performed in rats by intravenous injection and oral administration.
Experimental methods and conditions: Male Sprague Dawley rats were given the test compound 1 mg/Kg (intravenous injection, solvent 5% DMSO/10% Solutol/85% Saline) and 2 mg/Kg (intragastric administration, solvent 0.5% MC) by respectively; 5 min, 15 min, 30 min, 1 hr, 2 hr, 4 hr, 6 hr, 8 hr, 24 hr after administration, blood was collected from submandibular vein, 0.20 mL was collected from each sample , and heparin sodium was used for anticoagulation. After collection, the sample was placed on ice, and the plasma was centrifuged to be measured within 1 hour. Plasma drug concentration in plasma was detected by liquid chromatography tandem mass spectrometry (LC/MS/MS) to calculate pharmacokinetic parameters.

[4] = po, intragastric administration 2 mg/kg
[5] = intravenous administration 1 mg/kg

SMILES | IC50 [2] [nM] | F [3] [%] | AUC(0-inf) [3, 4] [ng·h/mL] | Cmax [3, 4] [ng/mL] | half-life [3, 4] [h] | AUC(0-inf) [3, 5] [ng·h/mL] | clearance [3, 5] [mL/min/kg] | half-life [3, 5] [h] | Vd [3, 5] [L/kg] | CT2.0 [1] [µM]
O=C1CCc2cc(-c3cnc([C@@H]4[C@H]5C[C@H]5c5nc(-c6cc(Cl)ccc6-n6cc(Cl)nn6)cc(=O)n54)[nH]3)ccc2N1 [Embodiment 89] | 12.5 |  |  |  |  |  |  |  |  | 1.29
O=C1CCc2c(ccc(-c3cnc([C@@H]4[C@H]5C[C@H]5c5nc(-c6cc(Cl)ccc6-n6cc(Cl)nn6)cc(=O)n54)[nH]3)c2F)N1 [Embodiment 90] | 6.33 | 28.4 | 17600 | 1830 | 3.16 | 26900 | 0.63 | 3.41 | 0.18 | 0.63
O=C1CCc2c(ccc(-c3cnc([C@@H]4[C@H]5C[C@H]5c5nc(-c6cc(Cl)ccc6-n6cc(Cl)nn6)cc(=O)n54)[nH]3)c2Cl)N1 [Embodiment 91] | 3.93 |  |  |  |  |  |  |  |  | 2.27
O=C1CCc2cc(-c3[nH]c([C@@H]4[C@H]5C[C@H]5c5nc(-c6cc(Cl)ccc6-n6cc(Cl)nn6)cc(=O)n54)nc3F)ccc2N1 [Embodiment 92] | 4.24 |  |  |  |  |  |  |  |  | 0.83

These reach a lower IC50 [2]. Values come first.

IC50 [2] [nM] | F [3] [%] | AUC(0-inf) [3, 4] [ng·h/mL] | Cmax [3, 4] [ng/mL] | half-life [3, 4] [h] | AUC(0-inf) [3, 5] [ng·h/mL] | clearance [3, 5] [mL/min/kg] | half-life [3, 5] [h] | Vd [3, 5] [L/kg] | SMILES | CT2.0 [1] [µM]
3.34 | 25.32 | 3310 | 709 | 1.63 | 6530 | 2.66 | 1.65 | 0.349 | Nc1ccc(-c2nc(F)c([C@@H]3[C@H]4C[C@H]4c4cc(-c5cc(Cl)ccc5-n5cnnn5)cc(=O)n43)[nH]2)c(F)n1 [Embodiment 36] | 0.42
0.83 |  |  |  |  |  |  |  |  | Nc1n[nH]c2cc(-c3[nH]c([C@@H]4[C@H]5C[C@H]5c5cc(-c6cc(Cl)ccc6-n6cc(C(F)F)nn6)cc(=O)n54)nc3F)ccc12 [Embodiment 83] | 0.82
0.31 |  |  |  |  |  |  |  |  | Nc1n[nH]c2c(F)c(-c3cnc([C@@H]4[C@H]5C[C@H]5c5cc(-c6cc(Cl)ccc6-n6cnnn6)cc(=O)n54)[nH]3)ccc12 [Embodiment 86] | 0.20
